Our source for the Bliss interaction score values is the supplement of paper PMC10627819.

Common to all, as to test: Bliss interaction score (quartile over a dose matrix) (fitness difference); higher = more antagonism (negative = synergy)
One assay deals with S. aureus Newman. A digest of the protocol:
(§1)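 Fitness was derived from optical density at entry into stationary phase, divided by the robust mean of the no-drug wells on the same plate. That reading was taken as OD595, and the ratio was capped at 1. Single-drug fitness was inferred from the combination data. The Bliss score, observed fitness minus the expected product of single-drug fitness, was summarised as quartiles over technical, biological and donor/recipient replicates.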

The test system of the next assay is S. pneumoniae D39V. The method, boiled down: as §1
For a further assay, the system named is B. subtilis 168. A digest of the protocol: as §1
Another assay concerns S. aureus DSM 20231. A digest of the protocol:
as §1
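Further: first quartile when negative (synergy) and third quartile when positive (antagonism).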

Turning to `N#CC(C#N)=NNc1cccc(Cl)c1` [CCCP] + C[n+]1ccc(-c2cc[n+](C)cc2)cc1 [Paraquat], the Bliss interaction score in the assay on S. aureus Newman is -0.0253; in the assay on S. pneumoniae D39V, 0.0866; with B. subtilis 168 it was 0.0508; with S. aureus DSM 20231 it was -0.0508.

For the molecule `N#CC(C#N)=NNc1cccc(Cl)c1` [CCCP] + Cc1cc(NS(=O)(=O)c2ccc(N)cc2)no1 [Sulfamethoxazol], the Bliss interaction score is -0.0463 with S. aureus Newman, 0.0794 with S. pneumoniae D39V, -0.0348 in the assay on B. subtilis 168 and -0.0343 with S. aureus DSM 20231.

On to `N#CC(C#N)=NNc1cccc(Cl)c1` [CCCP] + Cc1ncc([N+](=O)[O-])n1CCO [Metronidazole], for which the Bliss interaction score with S. aureus Newman is -0.0331; in the assay with S. pneumoniae D39V, 0.12; in the assay with B. subtilis 168 it was 0.0615; with S. aureus DSM 20231 it was 0.0642.

For the molecule `N#CC(C#N)=NNc1cccc(Cl)c1` [CCCP] + Cc1onc(-c2ccccc2)c1C(=O)N[C@@H]1C(=O)N2[C@@H]1SC(C)(C)[C@@H]2C(=O)O [Oxacillin], the Bliss interaction score in the assay on S. aureus Newman is -0.0755; in the assay on S. pneumoniae D39V, 0.12; with B. subtilis 168, 0.0476; in the assay with S. aureus DSM 20231, 0.0876.

In the case of `N#CC(C#N)=NNc1cccc(Cl)c1` [CCCP] + Clc1ccc(COC(Cn2ccnc2)c2ccc(Cl)cc2Cl)c(Cl)c1 [Miconazole], the Bliss interaction score is -0.0554 in the assay with S. aureus Newman, -0.0431 in the assay with S. pneumoniae D39V, 0.0582 with B. subtilis 168 and -0.0382 in the assay with S. aureus DSM 20231.

`N#CC(C#N)=NNc1cccc(Cl)c1` [CCCP] + Cn1nnc(-c2ccc(-c3ccc(N4C[C@H](CO)OC4=O)cc3F)cn2)n1 [Tedizolid]: the Bliss interaction score with S. aureus Newman was 0.104; in the assay with S. pneumoniae D39V it was 0.044; with B. subtilis 168, -0.0578; with S. aureus DSM 20231 it was -0.031.

For the molecule `N#CC(C#N)=NNc1cccc(Cl)c1` [CCCP] + N[C@@H]1CONC1=O [CycloserineD], the Bliss interaction score is -0.0487 in the assay with S. aureus Newman, 0.102 with S. pneumoniae D39V, 0.0617 with B. subtilis 168 and -0.0883 in the assay on S. aureus DSM 20231.

Regarding `N#CC(C#N)=NNc1cccc(Cl)c1` [CCCP] + O=C1CN(/N=C/c2ccc([N+](=O)[O-])o2)C(=O)N1 [Nitrofurantoin], the Bliss interaction score in the assay on S. aureus Newman was -0.0479; in the assay on S. pneumoniae D39V, -0.109; in the assay with B. subtilis 168, -0.0566; in the assay with S. aureus DSM 20231, -0.0278.

As for `N#CC(C#N)=NNc1cccc(Cl)c1` [CCCP] + O=C(N[C@H](CO)[C@H](O)c1ccc([N+](=O)[O-])cc1)C(Cl)Cl [Chloramphenicol], the Bliss interaction score was 0.076 in the assay on S. aureus Newman, -0.0866 with S. pneumoniae D39V, -0.0662 with B. subtilis 168 and -0.0344 in the assay on S. aureus DSM 20231.

Regarding `N#CC(C#N)=NNc1cccc(Cl)c1` [CCCP] + O=C(O)[C@H]1/C(=C/CO)O[C@@H]2CC(=O)N21 [Clavulanic], the Bliss interaction score was 0.0274 in the assay with S. aureus Newman, 0.0476 in the assay with S. pneumoniae D39V, 0.0453 in the assay on B. subtilis 168 and -0.315 with S. aureus DSM 20231.

With `N#CC(C#N)=NNc1cccc(Cl)c1` [CCCP] + O=C(O)c1cn(C2CC2)c2cc(N3CCNCC3)c(F)cc2c1=O [Ciprofloxacin], the Bliss interaction score in the assay with S. aureus Newman is -0.0497; in the assay on S. pneumoniae D39V, 0.0549; with B. subtilis 168 it was -0.0456; with S. aureus DSM 20231, -0.0358.

With `N#CC(C#N)=NNc1cccc(Cl)c1` [CCCP] + O=C(O[C@@H]1Cc2c(O)cc(O)cc2O[C@@H]1c1cc(O)c(O)c(O)c1)c1cc(O)c(O)c(O)c1 [EGCG], the Bliss interaction score in the assay on S. aureus Newman is -0.0367; in the assay with S. pneumoniae D39V, 0.105; in the assay with B. subtilis 168, -0.0905; in the assay with S. aureus DSM 20231 it was -0.0526.

For the molecule `N#CC(C#N)=NNc1cccc(Cl)c1` [CCCP] + Oc1cc(Cl)ccc1Oc1ccc(Cl)cc1Cl [Triclosan], the Bliss interaction score with S. aureus Newman is -0.021; with S. pneumoniae D39V, 0.0866; in the assay with B. subtilis 168, 0.0443; in the assay on S. aureus DSM 20231, 0.0338.

`CO/N=C(\C(=O)N[C@@H]1C(=O)N2C(C(=O)O)=C(COC(C)=O)CS[C@H]12)c1csc(N)n1` [Cefotaxime] + CC1(C)S[C@@H]2[C@H](NC(=O)Cc3ccccc3)C(=O)N2[C@H]1C(=O)O [PenicillinG]: the Bliss interaction score is -0.0351 in the assay on S. aureus Newman, -0.0791 in the assay on S. pneumoniae D39V, -0.151 with B. subtilis 168 and -0.0835 in the assay on S. aureus DSM 20231.

For the molecule `CO/N=C(\C(=O)N[C@@H]1C(=O)N2C(C(=O)O)=C(COC(C)=O)CS[C@H]12)c1csc(N)n1` [Cefotaxime] + CC(=O)O[C@H]1C[C@@]2(C)[C@@H](C[C@@H](O)[C@H]3[C@@]4(C)CC[C@@H](O)[C@@H](C)[C@@H]4CC[C@@]32C)/C1=C(\CCC=C(C)C)C(=O)O [Fusidic acid], the Bliss interaction score with S. aureus Newman turned out to be 0.0487; with S. pneumoniae D39V, 0.11; with B. subtilis 168, 0.0613; in the assay with S. aureus DSM 20231, 0.0189.

In the case of `CO/N=C(\C(=O)N[C@@H]1C(=O)N2C(C(=O)O)=C(COC(C)=O)CS[C@H]12)c1csc(N)n1` [Cefotaxime] + CCC[C@@H]1C[C@@H](C(=O)N[C@@H]([C@H]2O[C@H](SC)[C@H](O)[C@@H](O)[C@H]2O)[C@H](C)Cl)N(C)C1 [Clindamycin], the Bliss interaction score with S. aureus Newman is -0.0656; in the assay on S. pneumoniae D39V it was 0.113; in the assay on B. subtilis 168, 0.0327; in the assay with S. aureus DSM 20231, 0.0463.

Regarding `CO/N=C(\C(=O)N[C@@H]1C(=O)N2C(C(=O)O)=C(COC(C)=O)CS[C@H]12)c1csc(N)n1` [Cefotaxime] + CC[C@H]1OC(=O)[C@H](C)C(=O)[C@H](C)[C@@H](O[C@@H]2O[C@H](C)C[C@H](N(C)C)[C@H]2O)[C@](C)(OC)C[C@@H](C)C(=O)[C@H](C)[C@H]2N(CCCCn3cnc(-c4cccnc4)c3)C(=O)O[C@]12C [Telithromycin], the Bliss interaction score is -0.033 in the assay on S. aureus Newman, 0.0507 in the assay on S. pneumoniae D39V, 0.0749 with B. subtilis 168 and 0.0754 in the assay with S. aureus DSM 20231.

As to `CO/N=C(\C(=O)N[C@@H]1C(=O)N2C(C(=O)O)=C(COC(C)=O)CS[C@H]12)c1csc(N)n1` [Cefotaxime] + CC[C@H]1OC(=O)[C@H](C)[C@@H](O[C@H]2C[C@@](C)(OC)[C@@H](O)[C@H](C)O2)[C@H](C)[C@@H](O[C@@H]2O[C@H](C)C[C@H](N(C)C)[C@H]2O)[C@](C)(O)C[C@@H](C)C(=O)[C@H](C)[C@@H](O)[C@]1(C)O [Erythromycin], the Bliss interaction score was -0.0525 in the assay on S. aureus Newman, 0.0515 in the assay on S. pneumoniae D39V, 0.0702 with B. subtilis 168 and 0.016 in the assay with S. aureus DSM 20231.

Regarding `CO/N=C(\C(=O)N[C@@H]1C(=O)N2C(C(=O)O)=C(COC(C)=O)CS[C@H]12)c1csc(N)n1` [Cefotaxime] + CC[C@H]1OC(=O)[C@H](C)[C@@H](O[C@H]2C[C@@](C)(OC)[C@@H](O)[C@H](C)O2)[C@H](C)[C@@H](O[C@@H]2O[C@H](C)C[C@H](N(C)C)[C@H]2O)[C@](C)(OC)C[C@@H](C)C(=O)[C@H](C)[C@@H](O)[C@]1(C)O [Clarithromycin], the Bliss interaction score was -0.0626 in the assay on S. aureus Newman, 0.0611 in the assay with S. pneumoniae D39V, 0.0567 in the assay on B. subtilis 168 and 0.0514 in the assay on S. aureus DSM 20231.

As to `CO/N=C(\C(=O)N[C@@H]1C(=O)N2C(C(=O)O)=C(COC(C)=O)CS[C@H]12)c1csc(N)n1` [Cefotaxime] + CN(C)[C@@H]1C(O)=C(C(N)=O)C(=O)[C@@]2(O)C(O)=C3C(=O)c4c(O)ccc(Cl)c4[C@@](C)(O)[C@H]3C[C@@H]12 [Clortetracycline], the Bliss interaction score is 0.0483 in the assay on S. aureus Newman, 0.0665 in the assay with S. pneumoniae D39V, 0.0481 in the assay on B. subtilis 168 and 0.0917 in the assay on S. aureus DSM 20231.
